According to publication PMC5906549, “Cathelicidin-Derived Antimicrobial Peptides Inhibit Zika Virus Through Direct Inactivation and Interferon Pathway” (Frontiers in Immunology, 2018):
Peptide text beside a SMILES is read from it.

System: ZIKV strain MR766
Experiment: Post-infection peptide treatment of ZIKV-infected human fetal astrocytes (RT-PCR and plaque-forming assay)
Type: cell-based, Zika virus
Details: human fetal astrocytes infected MOI 0.5 for 24 h, then peptide 10 µM for 24 h, N = 4; for Zika virions after post-infection treatment (plaque-forming assay): cell-free supernatants; for ZIKV RNA after post-infection treatment, compared with untreated ZIKV group: normalized to GAPDH
Description: Vero cells were plated into 12-well plates at 5 (10^5 cells/well the day before infection). On the day of infection, the monolayers of Vero cells were inoculated with 100 µL of 10-fold serial dilutions of viral stocks and incubated at 37 °C for 1 h. After viral inoculation, medium containing ZIKV particles was removed and 1 ml overlay containing 0.6% molecular biology grade agarose (Agarose Unlimited, Alachua, FL, USA) in Modified Eagle Medium (Gibco) with 2% FBS. Cells were maintained at 37°C in 5% CO2 for 4 days. On day 5, cells were fixed with 4% paraformaldehyde solution in PBS and stained with 1% crystal violet solution in 20% methanol in water. Viral plaques were photographed using a CanonScan 9950F scanner and each plaque was counted as a plaque-forming unit (PFU). Viral titer was calculated as PFU/[volume virus (mL) × (dilution factor)].
Total mRNA was isolated with TRIzol Reagent (Thermo Fisher Scientific) and RNeasy Mini Kit (QIAGEN Inc., Valencia, CA, USA) following the manufacturer’s recommendations. Two real-time RT-PCR methods were used for the current studies. First, SYBR Green-based RT-PCR assay was used to determine intracellular ZIKV RNA in Vero cells. For this assay, reverse transcription was performed using Verso cDNA synthesis Kit (Thermo Fisher Scientific) and 1 µg of total RNA in a 15-µL final volume. The RT-PCR analyses were performed using 7.5-µL SYBR Green PCR Master Mix (Thermo Fisher Scientific) with 0.5-µL cDNA, 1.5-µL H2O, 5.5-µL oligonucleotide primer pairs at 10 µM. Primers used were ZIKV RNA: forward sequence 5-[…]-3, reverse sequence 5-[…]-3; GAPDH: forward sequence 5-[…]-3, reverse sequence 5-GGCTGT […] GG-3. PCR program: 1, 50°C for 2 min; 2, 95°C for 2 min; 3, 95°C for 15 s; 4, specific annealing temperature for 15 s; 5, 72°C for 1 min. Steps 2–4 were repeated 40 times. All samples were amplified in triplicate for analysis. Relative ZIKV RNA levels were determined and standardized with a GAPDH internal control using comparative ΔΔCT method ([35]). Second, TaqMan-based RT-PCR assay was used to determine intracellular ZIKV RNA and other gene expressions in Figures 3–6 and extracellular ZIKV RNA in Figure 3. […] Relative ZIKV mRNA levels were determined and standardized with a GAPDH or 18-s rRNA endogenous control using comparative ΔΔCT method ([35]). All reference genes, including GAPDH, β-actin, and 18-s rRNA, detected identical changes of genes (Figure S1 in Supplementary Material). […] Quantitative genomic RNA from ZIKV (NR-1838DQ, ATCC) was used as a standard to calculate viral copies. […]
Figure 4 Antimicrobial peptides treatment post-infection is still effective in inhibiting Zika virus (ZIKV) infection. […] (B–D) At 24-h post-antimicrobial peptide treatment, RNA was isolated from cells and ZIKV RNA was determined through real-time RT-PCR. […]

Row | SMILES | Zika virions after post-infection treatment (plaque-forming assay) | ZIKV RNA after post-infection treatment, compared with untreated ZIKV group
1 | CC[C@H](C)[C@H](NC(=O)[C@H](CCCCN)NC(=O)[C@H](CCCCN)NC(=O)[C@H](Cc1ccccc1)NC(=O)[C@H](CC(C)C)NC(=O)[C@H](CCCCN)NC(=O)[C@H](CCCCN)NC(=O)[C@H](Cc1ccccc1)NC(=O)[C@H](CCCCN)NC(=O)[C@H](CCCCN)NC(=O)[C@H](CCCNC(=N)N)NC(=O)[C@H](Cc1ccccc1)NC(=O)[C@H](CCCNC(=N)N)NC(=O)[C@H](CCCCN)NC(=O)[C@H](Cc1ccccc1)NC(=O)[C@H](CCCNC(=N)N)NC(=O)CN)C(=O)N[C@@H](CO)C(=O)O [BMAP-18] (H-GRFKRFRKKFKKLFKKIS-OH; N-terminus and C-terminus assumed) | fewer virions | trended downward; however, the difference was not significant
2 | CC[C@H](C)[C@H](NC(=O)[C@H](CCCNC(=N)N)NC(=O)[C@H](CCC(N)=O)NC(=O)[C@@H](NC(=O)[C@@H](NC(=O)[C@H](CCCNC(=N)N)NC(=O)[C@H](CCCCN)NC(=O)[C@H](Cc1ccccc1)NC(=O)CN)[C@@H](C)CC)C(C)C)C(=O)N[C@@H](CCCCN)C(=O)N[C@@H](CC(=O)O)C(=O)N[C@@H](Cc1ccccc1)C(=O)N[C@@H](CC(C)C)C(=O)N[C@@H](CCCNC(=N)N)C(=O)N[C@@H](CC(N)=O)C(=O)N[C@@H](CC(C)C)C(=O)N[C@H](C(N)=O)C(C)C [GF-17] (H-GFKRIVQRIKDFLRNLV-NH2; N-terminus and C-terminus assumed) | fewer virions | significantly decreased ZIKV RNA
